One assay concerns the target T1, HDAC6 human recombinant (Homo sapiens, UniProt Q9UBN7).
T1 construct: purchased Calbiochem 382180
T1 sequence (Q9UBN7 1-1215): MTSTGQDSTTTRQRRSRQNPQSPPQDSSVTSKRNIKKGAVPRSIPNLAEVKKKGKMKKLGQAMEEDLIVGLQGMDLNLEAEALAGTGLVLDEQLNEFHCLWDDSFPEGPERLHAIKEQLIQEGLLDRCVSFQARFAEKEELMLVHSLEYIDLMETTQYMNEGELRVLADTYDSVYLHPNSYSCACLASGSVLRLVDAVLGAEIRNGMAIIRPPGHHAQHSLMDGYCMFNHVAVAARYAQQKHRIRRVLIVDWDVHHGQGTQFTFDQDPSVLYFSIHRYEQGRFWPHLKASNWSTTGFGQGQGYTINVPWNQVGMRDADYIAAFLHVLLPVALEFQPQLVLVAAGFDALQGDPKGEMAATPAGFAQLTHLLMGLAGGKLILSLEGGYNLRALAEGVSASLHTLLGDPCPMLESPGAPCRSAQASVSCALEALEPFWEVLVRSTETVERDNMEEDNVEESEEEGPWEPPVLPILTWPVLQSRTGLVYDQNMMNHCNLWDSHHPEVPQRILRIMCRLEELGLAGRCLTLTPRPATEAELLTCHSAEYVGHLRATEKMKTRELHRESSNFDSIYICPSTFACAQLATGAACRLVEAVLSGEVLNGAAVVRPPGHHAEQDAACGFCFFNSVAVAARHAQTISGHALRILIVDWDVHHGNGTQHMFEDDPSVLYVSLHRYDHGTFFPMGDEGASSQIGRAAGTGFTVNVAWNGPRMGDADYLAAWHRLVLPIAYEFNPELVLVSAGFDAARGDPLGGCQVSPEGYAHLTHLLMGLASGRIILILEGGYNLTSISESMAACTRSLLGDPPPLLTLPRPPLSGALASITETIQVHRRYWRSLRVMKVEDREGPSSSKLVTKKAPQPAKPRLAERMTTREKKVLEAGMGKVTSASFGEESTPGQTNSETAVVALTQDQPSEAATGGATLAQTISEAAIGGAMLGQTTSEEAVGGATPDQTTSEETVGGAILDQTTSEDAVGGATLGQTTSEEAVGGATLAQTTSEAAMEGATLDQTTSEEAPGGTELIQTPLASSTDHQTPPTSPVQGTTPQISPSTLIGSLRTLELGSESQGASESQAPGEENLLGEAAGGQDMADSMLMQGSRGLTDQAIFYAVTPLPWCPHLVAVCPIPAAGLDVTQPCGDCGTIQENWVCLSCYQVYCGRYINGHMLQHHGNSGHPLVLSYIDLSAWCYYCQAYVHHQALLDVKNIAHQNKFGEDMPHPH
In words: HDAC6 enzyme activity inhibition (fluorimetric, in vitro). To be noted: 37° C., 60 minutes; tested at 0.1, 1, 10, 100 and 1000 nM. The assay is classed as biochemical. As for the experimental part:
(§1) 1. Experiment on Activities in HDAC Enzymes (HDAC1 and HDAC6)
(§2) Assays were performed using a HDAC1 fluorimetric drug discovery assay kit (Enzolifesciences: BML-AK511) and a HDAC6 human recombinant (Calbiochem: 382180). The assay mixture of the kit was treated with each of the compounds of the Examples at concentrations 100, 1000 and 10000 nM for HDAC1 assay and 0.1, 1, 10, 100 and 1000 nM for HDAC6 assay. The treated assay mixture was allowed to react at 37° C. for 60 minutes, and then was treated with a developer and allowed to stand at 37° C. for 30 minutes, followed by quantification of the fluorescence. In Table 17, lower HDAC6 values (μM) indicate higher HDAC6 inhibitory activities of the compounds. Also, because selective HDAC6 inhibitors should not inhibit HDAC1 (μM), higher HDAC1 values indicate higher HDAC6 selectivity of the compounds.

A further assay concerns the target T2, HDAC1 (Homo sapiens, UniProt Q13547).
T2 construct: purchased Enzolifesciences BML-AK511
In words: HDAC1 enzyme activity inhibition (HDAC1 fluorimetric drug discovery assay kit). The assay is classed as biochemical. To be noted: 37° C., 60 minutes; tested at 100, 1000 and 10000 nM. As for the experimental part: as §1, §2

IC50 data for 22 compounds are collected here from US20160355475A1, “NOVEL INDOLE DERIVATIVE COMPOUND AND PHARMACEUTICAL COMPOSITION COMPRISING THE SAME” (CHONG KUN DANG PHARMACEUTICAL CORP., priority 2014, published 2016).

Each structure is given as a SMILES string.

A word on the IC50: it is the midpoint of a concentration-inhibition curve.

T2 sequence (Q13547 whole entry): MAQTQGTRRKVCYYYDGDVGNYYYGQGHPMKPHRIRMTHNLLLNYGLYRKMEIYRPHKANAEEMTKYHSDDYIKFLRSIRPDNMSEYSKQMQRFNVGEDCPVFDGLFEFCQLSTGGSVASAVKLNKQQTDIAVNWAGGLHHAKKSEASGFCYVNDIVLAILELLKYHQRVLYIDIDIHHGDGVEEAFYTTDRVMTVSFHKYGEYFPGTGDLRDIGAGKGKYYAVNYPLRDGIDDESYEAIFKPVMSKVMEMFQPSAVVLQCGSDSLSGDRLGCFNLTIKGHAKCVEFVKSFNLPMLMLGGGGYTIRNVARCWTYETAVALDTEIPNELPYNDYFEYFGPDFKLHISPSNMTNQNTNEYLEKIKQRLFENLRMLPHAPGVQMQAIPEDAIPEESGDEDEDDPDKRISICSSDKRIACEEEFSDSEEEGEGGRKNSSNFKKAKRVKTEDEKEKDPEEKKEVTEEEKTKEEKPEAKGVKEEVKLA

Take `COC[C@@H]1CCCN1CCn1c(C)c(Cc2ccc(C(=O)NO)cc2)c2ccccc21` [Compound 200, (S)—N-hydroxy-4-((1-(2-(2-(methoxymethyl)pyrrolidin-1-yl)ethyl)-2-methyl-1H-indol-3-yl)methyl)benzamide]: the values for the IC50 on HDAC6 human recombinant and at HDAC1 were 8 nM and 2610 nM, respectively.
Taken in the same sequence, the figures for `Cc1nccn1CCn1c(C)c(Cc2ccc(C(=O)NO)cc2)c2ccccc21` [Compound 201, N-hydroxy-4-((2-methyl-1-(2-(2-methyl-1H-imadazol-1-yl)ethyl)-1H-indol-3-yl)methyl)benzamide] were 9 nM and 2470 nM.
As to `Cc1c(Cc2ccc(C(=O)NO)cc2)c2ccccc2n1CCN1CCC(F)CC1` [Compound 553, 4-((1-(2-(4-Fluoropiperidin-1-yl)ethyl)-2-methyl-1H-indol-3-yl)methyl)-N-hydroxybenzamide], the IC50 on HDAC6 human recombinant came out at 39 nM; on HDAC1, 8100 nM.
The matching figures for `CCCCN1CCC(Cn2c(C)c(Cc3ccc(C(=O)NO)cc3)c3ccccc32)CC1` [Compound 558, 4-((1-((1-Butylpiperidin-4-yl)methyl)-2-methyl-1H-indol-3-yl)methyl)-N-hydroxybenzamide]: 80 nM and 6110 nM.
As to `Cc1c(Cc2ccc(C(=O)NO)cc2)c2ccccc2n1CCN1CCN(CC(C)(C)F)CC1` [Compound 564, 4-((1-(2-(4-(2-Fluoro-2-methylpropyl)piperazin-1-yl)ethyl)-2-methyl-1H-indol-3-yl)methyl)-N-hydroxybenzamide], the IC50 at HDAC6 human recombinant was 25 nM; against HDAC1, 370 nM.
The matching figures for `CCC(F)(CC)CN1CCC(CCn2c(C)c(Cc3ccc(C(=O)NO)cc3)c3ccccc32)CC1` [Compound 581, 4-((1-(2-(1-(2-Ethyl-2-fluorobutyl)piperidin-4-yl)ethyl)-2-methyl-1H-indol-3-yl)methyl)-N-hydroxybenzamide]: 870 nM and above 10000 nM.
With `Cc1c(Cc2ccc(C(=O)NO)cc2)c2cc(F)ccc2n1CC1CCN(CC(C)(C)O)CC1` [Compound 582, 4-((5-Fluoro-1-((1-(2-hydroxy-2-methylpropyl)piperidin-4-yl)methyl)-2-methyl-1H-indol-3-yl)methyl)-N-hydroxybenzamide], the values for the IC50 on HDAC6 human recombinant and on HDAC1 were 27 nM and 2460 nM, respectively.
Take `Cc1c(Cc2ccc(C(=O)NO)cc2)c2ccccc2n1CCN1CCCCC1` [Compound 585]: the IC50 is 84 nM at HDAC6 human recombinant and 7750 nM at HDAC1.
Regarding `Cc1c(Cc2ccc(C(=O)NO)cc2)c2ccccc2n1CCN1CCC(CO)C1` (centres unmarked) [Compound 586, N-hydroxy-4-((1-(2-(3-(hydroxymethyl)pyrrolidin-1-yl)ethyl)-2-methyl-1H-indol-3-yl)methyl)benzamide], the figures for the IC50 at HDAC6 human recombinant and against HDAC1 were 16 nM and 2810 nM, respectively.
Taken in the same sequence, the figures for `Cc1c(Cc2ccc(C(=O)NO)cc2)c2cc(F)ccc2n1CCN1CC[C@H](O)C1` [Compound 587, (S)-4-((5-fluoro-1-(2-(3-hydroxypyrrolidin-1-yl)ethyl)-2-methyl-1H-indol-3-yl)methyl)-N-hydroxybenzamide] were 30 nM and 2810 nM.
Taken in the same sequence, the figures for `Cc1c(Cc2ccc(C(=O)NO)cc2)c2cc(F)ccc2n1CC1CCN(CC(C)(C)F)CC1` [Compound 588, 4-((5-Fluoro-1-((1-(2-fluoro-2-methylpropyl)piperidin-4-yl)methyl)-2-methyl-1H-indol-3-yl)methyl)-N-hydroxybenzamide] were 378 nM and 6730 nM.
The matching figures for `Cc1c(Cc2ccc(C(=O)NO)cc2)c2cc(F)ccc2n1CCN1CC[C@H](F)C1` [Compound 589, (S)-4-((5-fluoro-1-(2-(3-fluoropyrrolidin-1-yl)ethyl)-2-methyl-1H-indol-3-yl)methyl)-N-hydroxybenzamide]: 63 nM and 4640 nM.
Consider `Cc1c(Cc2ccc(C(=O)NO)cc2)c2cc(F)ccc2n1CCN1CCC(F)CC1` [Compound 590, 4-((5-Fluoro-1-(2-(4-fluoropiperidin-1-yl)ethyl)-2-methyl-1H-indol-3-yl)methyl)-N-hydroxybenzamide], for which the IC50 at HDAC6 human recombinant turned out to be 49 nM; at HDAC1, 6120 nM.
The matching figures for `Cc1c(Cc2ccc(C(=O)NO)cc2)c2ccccc2n1CCN1CCC(CF)C1` (centres unmarked) [Compound 591, 4-((1-(2-(3-(Fluoromethyl)pyrrolidin-1-yl)ethyl)-2-methyl-1H-indol-3-yl)methyl)-N-hydroxybenzamide]: 31 nM and 6610 nM.
As to `Cc1c(Cc2ccc(C(=O)NO)cc2)c2ccccc2n1CCN1CC[C@H](O)C1` [Compound 592, (S)—N-hydroxy-4-((1-(2-(3-hydroxypyrrolidin-1-yl)ethyl)-2-methyl-1H-indol-3-yl)methyl)benzamide], the values for the IC50 at HDAC6 human recombinant and on HDAC1 were 16 nM and 4950 nM, respectively.
Taken in the same sequence, the figures for `Cc1c(Cc2ccc(C(=O)NO)cc2)c2ccccc2n1CCN1CC[C@H](F)C1` [Compound 593, (S)-4-((1-(2-(3-fluoropyrrolidin-1-yl)ethyl)-2-methyl-1H-indol-3-yl)methyl)-N-hydroxybenzamide] were 32 nM and 7140 nM.
The matching figures for `Cc1c(Cc2ccc(C(=O)NO)cc2)c2ccccc2n1CCN1CCCC(CO)C1` (centres unmarked) [Compound 594, N-hydroxy-4-((1-(2-(3-(hydroxymethyl)piperidin-1-yl)ethyl)-2-methyl-1H-indol-3-yl)methyl)benzamide]: 17 nM and 3140 nM.
The matching figures for `CCCc1c(Cc2ccc(C(=O)NO)cc2)c2ccccc2n1CC1CCN(CC(C)(C)O)CC1` [Compound 601, N-hydroxy-4-((1-((1-(2-hydroxy-2-methylpropyl)piperidin-4-yl)methyl)-2-propyl-1H-indol-3-yl)methyl)benzamide]: 98 nM and 5600 nM.
Take `CCCc1c(Cc2ccc(C(=O)NO)cc2)c2ccccc2n1CC1CCN(CC(C)(C)F)CC1` [Compound 602, 4-((1-((1-(2-fluoro-2-methylpropyl)piperidin-4-yl)methyl)-2-propyl-1H-indol-3-yl)methyl)-N-hydroxybenzamide]: the IC50 was 300 nM at HDAC6 human recombinant and above 10000 nM at HDAC1.
The matching figures for `Cc1c(Cc2ccc(C(=O)NO)cc2)c2ccccc2n1CC1CCN(Cc2cccc(-c3nccs3)c2)CC1` [Compound 603, N-hydroxy-4-((2-methyl-1-((1-(3-(thiazol-2-yl)benzyl)piperidin-4-yl)methyl)-1H-indol-3-yl)methyl)benzamide]: 206 nM and above 10000 nM.
On to `Cc1c(Cc2ccc(C(=O)NO)cc2)c2ccccc2n1CC1CCN(CC(C)(C)O)CC1` [Compound 608, N-hydroxy-4-((1-((1-(2-hydroxy-2-methylpropyl)piperidin-4-yl)methyl)-2-methyl-1H-indol-3-yl)methyl)benzamide], for which the IC50 at HDAC6 human recombinant came to 7 nM; against HDAC1, 1070 nM.
Taken in the same sequence, the figures for `Cc1c(Cc2ccc(C(=O)NO)cc2)c2ccccc2n1CC1CCN(CC2(F)COC2)CC1` [Compound 609, 4-((1-((1-((3-Fluorooxetan-3-yl)methyl)piperidin-4-yl)methyl)-2-methyl-1H-indol-3-yl)methyl)-N-hydroxybenzamide] were 5 nM and 3630 nM.
